Assay results published in patent US7723329B2, “Substituted-3-sulfonylindazole derivatives as 5-hydroxytryptamine-6 ligands” (Wyeth LLC, priority 2005, dated 2010).

What was measured:
[1] = target: T1, human cloned 5-HT6 receptors (Homo sapiens, UniProt P50406); test: 5-HT6 binding affinity, [3H]-LSD displacement; details: membranes of Hela cells expressing human cloned 5-HT6 receptors; [3H]-LSD 3.0 nM; 120 minutes at room temperature
T1 construct: expressed in transfected cells; host or cells: HeLa cells
T1 sequence (P50406 whole entry): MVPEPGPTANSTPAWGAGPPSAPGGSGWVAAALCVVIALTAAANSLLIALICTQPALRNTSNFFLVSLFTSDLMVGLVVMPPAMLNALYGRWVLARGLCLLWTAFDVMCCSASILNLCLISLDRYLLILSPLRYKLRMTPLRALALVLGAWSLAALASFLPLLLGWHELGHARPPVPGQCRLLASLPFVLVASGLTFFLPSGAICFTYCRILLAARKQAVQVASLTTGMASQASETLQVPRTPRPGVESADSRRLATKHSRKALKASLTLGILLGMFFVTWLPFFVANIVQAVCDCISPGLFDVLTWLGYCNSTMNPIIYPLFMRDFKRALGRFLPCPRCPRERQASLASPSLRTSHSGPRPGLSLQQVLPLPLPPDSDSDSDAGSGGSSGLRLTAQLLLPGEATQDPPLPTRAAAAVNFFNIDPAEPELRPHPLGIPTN

Row | Compound | Ki [1] [nM] | melting point [°C]
1 | Cl.NCCc1cccc2c(S(=O)(=O)c3ccccc3)n[nH]c12 [Example 174, {2-[3-(Phenylsulfonyl)-1H-indazol-7-yl]ethyl}amine Hydrochloride] | 0.01 to 10 | 157 to 160
2 | CNCCc1ccc2[nH]nc(S(=O)(=O)c3ccccc3)c2c1 [Example 175, N-Methyl-N-{2-[3-(phenylsulfonyl)-1H-indazol-5-yl]ethyl}amine] | 0.01 to 10 | 186 to 188
3 | CC(c1ccc2[nH]nc(S(=O)(=O)c3cccc4ccccc34)c2c1)N1CCN(C)CC1 (stereo not shown) [Example 203, 5-[1-(4-Methylpiperazin-1-yl)ethyl]-3-(1-naphthylsulfonyl)-1H-indazole] | 0.01 to 10 | 183 to 185
4 | CNCCCc1ccc2[nH]nc(S(=O)(=O)c3cccc4ccccc34)c2c1 [Example 183] | 0.01 to 10 | 155 to 160
5 | CCN(C)CCCCc1ccc2[nH]nc(S(=O)(=O)c3cccc4ccccc34)c2c1 [Example 193] | 0.01 to 10 | 195 to 198
